# In patent publication US20090220448A1, “HAIR CARE COMPOSITIONS AND METHODS FOR INCREASING HAIR DIAMETER AND FOR IMMEDIATE FULLER/THICKER HAIR APPEARANCE” (priority 2008, published 2009):
# System: Primary human dermal papilla cells
# Assay: Synergy study: survival of metabolically stressed dermal papilla cells (ATP, Cell Titer Glo)
# Type: cell-based
# Details: 0.05%, 48 hours metabolic stress in reduced media, control 100% water
# Procedure: The dermal papilla, in normal human hair, is the control center for hair diameter. Increasing survival of dermal papilla cells in situ leads to increased hair diameter. Accordingly, an increase in survival of dermal papilla cells correlates with an increase in hair diameter.
# Primary human dermal papilla cells were metabolically stressed for 48 hours in reduced standard tissue culture media. During this period of stress the cells were treated with the mixtures or individual ingredients below. After 48 hr the metabolic activity of the cells was measured by the amount of ATP using the Cell Titer Glo™ kit (Promega).
smiles,measurement,value
Cn1c(=O)c2c(ncn2C)n(C)c1=O [Caffeine],Survival rate: % Change from Control,+41%
